Data set [1] in a line: Quantum yield measurements. The format is physicochemical. The conditions noted are these: referred to Rhodamine B in EtOH, excitation 510 nm, emission integrated 540-800 nm. In a few lines:
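Integrated fluorescence emission from 540 to 800 nm was referenced to Rhodamine B in EtOH (Φ=0.70) after excitation at 510 nm. Quantum yield was calculated with correction for solvent refractive index and absorbance at the excitation wavelength.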

A short description of data set [2]: Spectroscopic properties of the BDM library (absorbance and emission maxima). The format is physicochemical.
The conditions of data set [3]: in EtOH, excitation at 510 nm; cited from earlier work.

Data on 21 compounds can be found in US9267949B2, “Alkylamino BODIPY dyes as selective fluorescent probes for proteins and mouse embryonic stem cells” (National University of Singapore, priority 2011, dated 2016).

Each structure is given as a SMILES string.

With `CC1=CC(/C=C/c2cccc(N3CCCC3)c2[N+](=O)[O-])=[N+]2C1=C(CCN)c1cccn1[B-]2(F)F` [BDM-357], in data set [1], the “φ (quantum yield)” value turned out to be 0.04. In data set [2], the “λmax (ABS)” value came to 585 nm and the “λmax (EM)” value amounted to 687 nm.

On to `COc1ccc(/C=C/C2=[N+]3C(=C(CCN)c4cccn4[B-]3(F)F)C(C)=C2)c(F)c1` [BDM-359], for which the “φ (quantum yield)” value in data set [1] was found to be 0.83. In data set [2], the “λmax (ABS)” value came out at 559 nm and the “λmax (EM)” value is on record as 574 nm.

`CC1=CC(/C=C/c2ccc(SC(F)(F)F)cc2)=[N+]2C1=C(CCN)c1cccn1[B-]2(F)F` [BDM-363]: the “φ (quantum yield)” value in data set [1] was found to be 0.51. For the same compound, in data set [2], the “λmax (ABS)” value is 553 nm and the “λmax (EM)” value is on record as 564 nm.

As for `CC1=CC(/C=C/c2ccccc2OC(F)(F)F)=[N+]2C1=C(CCN)c1cccn1[B-]2(F)F` [BDM-365], the “φ (quantum yield)” value in data set [1] is given as 0.24. In addition, in data set [2], the “λmax (ABS)” value turned out to be 549 nm and the “λmax (EM)” value stood at 563 nm.

Consider `CC1=CC(/C=C/c2ccsc2)=[N+]2C1=C(CCN)c1cccn1[B-]2(F)F` [BDM-369], for which the “φ (quantum yield)” value in data set [1] worked out at 0.30. Moreover, in data set [2], the “λmax (ABS)” value is listed as 554 nm and the “λmax (EM)” value is given as 570 nm.

On to `CC1=CC(/C=C/c2ccc(-c3ccc(Cl)cc3)o2)=[N+]2C1=C(CCN)c1cccn1[B-]2(F)F` [BDM-371], for which the “φ (quantum yield)” value in data set [1] is 0.03. Moreover, in data set [2], the “λmax (ABS)” value was found to be 590 nm and the “λmax (EM)” value is 630 nm.

In the case of `COc1ccc(/C=C/C2=[N+]3C(=C(CCN)c4cccn4[B-]3(F)F)C(C)=C2)c(Cl)c1OC` [BDM-372], the “φ (quantum yield)” value in data set [1] came to 0.55. In data set [2], the “λmax (ABS)” value is listed as 561 nm and the “λmax (EM)” value is listed as 578 nm.

`CC1=CC(/C=C/c2ccc(N(C)C)c3ccccc23)=[N+]2C1=C(CCN)c1cccn1[B-]2(F)F` [BDM-377]: in data set [1], the “φ (quantum yield)” value stood at 0.04. The “λmax (ABS)” value in data set [2] was determined as 586 nm.

Turning to `CC1=CC(/C=C/c2ccc(OCc3ccc(F)cc3)cc2)=[N+]2C1=C(CCN)c1cccn1[B-]2(F)F` [BDM-378], in data set [1], the “φ (quantum yield)” value turned out to be 0.41. In addition, in data set [2], the “λmax (ABS)” value was 563 nm and the “λmax (EM)” value was found to be 585 nm.

For the compound `CC1=CC(/C=C/c2ccccc2I)=[N+]2C1=C(CCN)c1cccn1[B-]2(F)F` [BDM-384], in data set [1], the “φ (quantum yield)” value is on record as 0.32. Also, in data set [2], the “λmax (ABS)” value came out at 551 nm and the “λmax (EM)” value amounted to 565 nm.

`CC1=CC(/C=C/c2cccc(C=O)c2)=[N+]2C1=C(CCN)c1cccn1[B-]2(F)F` [BDM-391]: the “φ (quantum yield)” value in data set [1] turned out to be 0.31. For the same compound, in data set [2], the “λmax (ABS)” value was determined as 554 nm and the “λmax (EM)” value was found to be 563 nm.

For `CCOc1cc(/C=C/C2=[N+]3C(=C(CCN)c4cccn4[B-]3(F)F)C(C)=C2)ccc1O` [BDM-397], the “φ (quantum yield)” value in data set [1] is recorded as 0.10. In data set [2], the “λmax (ABS)” value is given as 570 nm and the “λmax (EM)” value came out at 614 nm.

As for `COC(=O)c1cc(OC)cc(OC)c1/C=C/C1=[N+]2C(=C(CCN)c3cccn3[B-]2(F)F)C(C)=C1` [BDM-401], in data set [1], the “φ (quantum yield)” value worked out at 0.85. In data set [2], the “λmax (ABS)” value worked out at 565 nm and the “λmax (EM)” value worked out at 590 nm.

With `CC1=CC(/C=C/c2ccc(Br)cc2)=[N+]2C1=C(CCN)c1cccn1[B-]2(F)F` [BDM-409], the “φ (quantum yield)” value in data set [1] is 0.12. In data set [2], the “λmax (ABS)” value turned out to be 558 nm and the “λmax (EM)” value is 570 nm.

`CC1=CC(/C=C/c2ccc(-c3ccccc3)c(F)c2)=[N+]2C1=C(CCN)c1cccn1[B-]2(F)F` [BDM-425]: the “φ (quantum yield)” value in data set [1] was found to be 0.12. Further, in data set [2], the “λmax (ABS)” value was 562 nm and the “λmax (EM)” value turned out to be 576 nm.

`CCOc1ccc(/C=C/C2=[N+]3C(=C(CCN)c4cccn4[B-]3(F)F)C(C)=C2)cc1` [BDM-429]: the “φ (quantum yield)” value in data set [1] amounted to 0.23. In data set [2], the “λmax (ABS)” value came out at 564 nm and the “λmax (EM)” value is given as 586 nm.

Turning to `CC1=CC(/C=C/c2c(C)nn(C)c2C)=[N+]2C1=C(CCN)c1cccn1[B-]2(F)F` [BDM-430], the “φ (quantum yield)” value in data set [1] came to 0.99. Also, in data set [2], the “λmax (ABS)” value was determined as 565 nm and the “λmax (EM)” value is listed as 592 nm.

As to `CC1=CC(/C=C/c2ccc(Oc3ccc(C(C)(C)C)cc3)cc2)=[N+]2C1=C(CCN)c1cccn1[B-]2(F)F` [BDM-435], the “φ (quantum yield)” value in data set [1] was found to be 0.39. Further, in data set [2], the “λmax (ABS)” value was 555 nm and the “λmax (EM)” value came out at 565 nm.

On to `CC1=CC(/C=C/c2ccc(Cl)c(F)c2)=[N+]2C1=C(CCN)c1cccn1[B-]2(F)F` [BDM-437], for which the “φ (quantum yield)” value in data set [1] came to 0.21. Further, in data set [2], the “λmax (ABS)” value is recorded as 555 nm and the “λmax (EM)” value worked out at 566 nm.

With `CC1=CC(/C=C/c2cc3ccccc3c3ccccc23)=[N+]2C1=C(CCN)c1cccn1[B-]2(F)F` [BDM-440], the “φ (quantum yield)” value in data set [1] came out at 0.37. Further, in data set [2], the “λmax (ABS)” value is recorded as 563 nm and the “λmax (EM)” value is recorded as 589 nm.

`CCN(CC)c1ccc2c(-c3ccccc3C(=O)O)c3ccc(=[N+](CC)CC)cc-3oc2c1.[Cl-]` [Rhodamine B]: in data set [3], the “Quantum yield of standard (ΦRho-B)” value was 0.70.
